Legend:
[1] = test system: corn; assay: Test B pre-/postemergence herbicide test; assay type: in vivo, Zea mays; settings: for Corn plant response rating (0 to 100 scale) / Plant response rating, Corn: 0 = no effect, 100 = complete control, preemergence; for Corn plant response rating: postemergence
Outline: (§1)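 Greenhouse pot assay with simultaneous preemergence (treated seed) and postemergence (2–18 cm seedlings) applications of surfactant-containing, non-phytotoxic solvent formulations. Response scored visually 13–15 days later on a 0–100 scale, 100 meaning complete control.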

[2] = test system: small flower umbrella sedge; assay: Test B flooded paddy test; assay type: in vivo, Cyperus difformis; settings: 1000 g ai/ha, scale 0 to 100 (0 no effect, 100 complete control)
Outline: (§2)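 Read-out: visual comparison with controls, scored 0 to 100, where 100 means complete control and 0 no effect. Formulated chemicals were applied postemergence to plants 2–18 cm tall (1- to 4-leaf), or to flooded-paddy plants at the 2-leaf stage, then held 13 to 15 days under glass.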

[3] = test system: blackgrass; assay: Test B postemergence herbicide test; assay type: in vivo, Alopecurus myosuroides; settings: postemergence
Outline: as §2

[4] = test system: wild oat; assay: Test B postemergence herbicide test; assay type: in vivo, Avena fatua; settings: postemergence
Outline: as §2

[5] = test system: cocklebur; assay: Test B pre-/postemergence herbicide test; assay type: in vivo, Xanthium strumarium; settings: for Cocklebur plant response rating (0 to 100 scale) / Plant response rating, Cocklebur: 0 = no effect, 100 = complete control, preemergence; for Cocklebur plant response rating: postemergence
Outline: (§3)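 Pre: seeds sown, then sprayed. Post: 1–4-leaf plants (2–18 cm) sprayed at the same time. Paddy: flooded, treated at 2-leaf stage. Formulation: non-phytotoxic solvent with surfactant. Greenhouse 13–15 days; visual 0–100 score relative to controls.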

[6] = test system: barnyardgrass; assay: Test B pre-/postemergence herbicide test; assay type: in vivo, Echinochloa crus-galli; settings: for Barnyardgrass plant response rating (0 to 100 scale) / Plant response rating, Barnyardgrass: 0 = no effect, 100 = complete control, preemergence; for Barnyardgrass plant response rating: postemergence
Outline: as §3

[7] = test system: rice; assay: Test B pre-/postemergence herbicide test; assay type: in vivo, Oryza sativa; settings: 0 = no effect, 100 = complete control, preemergence; for Rice plant response rating (0 to 100 scale): 125 g ai/ha; for Plant response rating, Rice: 500 g ai/ha, visual rating
Outline: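 Species tested were Echinochloa crus-galli, Ipomoea coccinea, Xanthium strumarium and Oryza sativa, treated both before emergence and at the 1- to 4-leaf stage; rice and barnyardgrass were also tested under flooding at 2 leaves. Greenhouse incubation lasted 13–15 days before visual 0–100 scoring.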

[8] = test system: pigweed; assay: Test B pre-/postemergence herbicide test; assay type: in vivo, Amaranthus retroflexus; settings: for Pigweed plant response rating (0 to 100 scale) / Plant response rating, Pigweed: 0 = no effect, 100 = complete control, preemergence; for Pigweed plant response rating: postemergence
Outline: as §1

[9] = test system: giant foxtail; assay: Test B pre-/postemergence herbicide test; assay type: in vivo, Setaria faberi; settings: for Foxtail, Giant plant response rating (0 to 100 scale) / Plant response rating, Foxtail, Giant: 0 = no effect, 100 = complete control, preemergence; for Foxtail, Giant plant response rating: postemergence
Outline: as §1

[10] = test system: barnyardgrass; assay: Test B flooded paddy test; assay type: in vivo, Echinochloa crus-galli; settings: 1000 g ai/ha, scale 0 to 100 (0 no effect, 100 complete control)
Outline: as §2

[11] = test system: ducksalad; assay: Test B flooded paddy test; assay type: in vivo, Heteranthera limosa; settings: 1000 g ai/ha, scale 0 to 100 (0 no effect, 100 complete control)
Outline: as §2

[12] = test system: velvetleaf; assay: Test B pre-/postemergence herbicide test; assay type: in vivo, Abutilon theophrasti; settings: for Velvetleaf plant response rating (0 to 100 scale) / Plant response rating, Velvetleaf: 0 = no effect, 100 = complete control, preemergence; for Velvetleaf plant response rating: postemergence
Outline: as §1

[13] = test system: morningglory; assay: Test B pre-/postemergence herbicide test; assay type: in vivo, Ipomoea coccinea; settings: for Morningglory plant response rating (0 to 100 scale) / Plant response rating, Morningglory: 0 = no effect, 100 = complete control, preemergence; for Morningglory plant response rating: postemergence
Outline: as §3

[14] = test system: wheat; assay: Test B postemergence herbicide test; assay type: in vivo, Triticum aestivum; parameters: key to Wheat plant response rating: 0 = no effect, 100 = complete control; settings: postemergence
Outline: as §2

[15] = test system: lambsquarters; assay: Test B pre-/postemergence herbicide test; assay type: in vivo, Chenopodium album; settings: for Lambsquarters plant response rating: postemergence
Outline: as §1

[16] = test system: Surinam grass; assay: Test B pre-/postemergence herbicide test; assay type: in vivo, Urochloa decumbens; settings: for Surinam Grass plant response rating (0 to 100 scale) / Plant response rating, Surinam Grass: 0 = no effect, 100 = complete control, preemergence; for Surinam Grass plant response rating: postemergence
Outline: as §1

[17] = test system: large crabgrass; assay: Test B pre-/postemergence herbicide test; assay type: in vivo, Digitaria sanguinalis; settings: for Crabgrass, Large plant response rating (0 to 100 scale) / Plant response rating, Crabgrass, Large: 0 = no effect, 100 = complete control, preemergence; for Crabgrass, Large plant response rating: postemergence
Outline: as §1

[18] = test system: rice; assay: Test B flooded paddy test; assay type: in vivo, Oryza sativa; settings: 1000 g ai/ha, scale 0 to 100 (0 no effect, 100 complete control)
Outline: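 Greenhouse test; postemergence application to plants at 1–4 leaves (2–18 cm); paddy species at 2 leaves; evaluated visually vs controls at 13–15 days; scale 0–100 (100 = complete control).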

[19] = 125 g ai/ha, visual rating, scale 0 (no effect) to 100 (complete control)
[20] = 500 g ai/ha, scale 0 to 100, 0 is no effect, 100 is complete control
[21] = 500 g ai/ha, visual rating, 0 = no effect, 100 = complete control, preemergence
[22] = 500 g ai/ha, visual rating, scale 0 (no effect) to 100 (complete control)

In the case of `CCNC(=O)c1ccc(F)c(NC(=O)c2c(F)c(C(C)(C)C)nn2CC)c1` [Compound 275], the “Corn plant response rating (0 to 100 scale)” value ([1]; 125 g ai/ha) is reported as 0, the “Plant response rating, Corn” value ([1]; 500 g ai/ha, visual rating) is reported as 20 and the “Corn plant response rating” value [1, 19] is reported as 0. The “Corn plant response rating” value [1, 20] was 0, the “Sedge, Umbrella plant response rating” value [2] was 80 and the “Blackgrass plant response rating” value [3, 19] was 40. The “Blackgrass plant response rating” value [3, 20] was 40, the “Oat, Wild plant response rating” value [4, 19] was 30 and the “Oat, Wild plant response rating” value [4, 20] was 40. For the same molecule, the “Cocklebur plant response rating (0 to 100 scale)” value ([5]; 125 g ai/ha) was 0, the “Plant response rating, Cocklebur” value ([5]; 500 g ai/ha, visual rating) was 0 and the “Cocklebur plant response rating” value [5, 19] was 0. For the same molecule, the “Cocklebur plant response rating” value [5, 20] was 10, the “Barnyardgrass plant response rating (0 to 100 scale)” value ([6]; 125 g ai/ha) was 0 and the “Plant response rating, Barnyardgrass” value ([6]; 500 g ai/ha, visual rating) was 60. For the same molecule, the “Barnyardgrass plant response rating” value [6, 19] was 0, the “Barnyardgrass plant response rating” value [6, 20] was 20 and the “Rice plant response rating (0 to 100 scale)” value [7] was 0. The “Plant response rating, Rice” value [7] was 60, the “Pigweed plant response rating (0 to 100 scale)” value ([8]; 125 g ai/ha) was 0 and the “Plant response rating, Pigweed” value ([8]; 500 g ai/ha, visual rating) was 40. For the same molecule, the “Pigweed plant response rating” value [8, 19] was 60, the “Pigweed plant response rating” value [8, 20] was 70 and the “Foxtail, Giant plant response rating (0 to 100 scale)” value ([9]; 125 g ai/ha) was 0. The “Plant response rating, Foxtail, Giant” value ([9]; 500 g ai/ha, visual rating) was 20, the “Foxtail, Giant plant response rating” value [9, 19] was 0 and the “Foxtail, Giant plant response rating” value [9, 20] was 0. The “Barnyardgrass plant response rating” value [10] was 20, the “Ducksalad plant response rating” value [11] was 60 and the “Velvetleaf plant response rating (0 to 100 scale)” value ([12]; 125 g ai/ha) was 0. For the same molecule, the “Plant response rating, Velvetleaf” value ([12]; 500 g ai/ha, visual rating) was 0, the “Velvetleaf plant response rating” value [12, 19] was 0 and the “Velvetleaf plant response rating” value [12, 20] was 30. The “Morningglory plant response rating (0 to 100 scale)” value ([13]; 125 g ai/ha) was 0, the “Plant response rating, Morningglory” value ([13]; 500 g ai/ha, visual rating) was 40 and the “Morningglory plant response rating” value [13, 19] was 0. The “Morningglory plant response rating” value [13, 20] was 10, the “Wheat plant response rating” value [14, 19] was 20 and the “Wheat plant response rating” value [14, 20] was 30. The “Plant response rating, Lambsquarters” value [15, 21] was 100, the “Lambsquarters plant response rating” value [15, 19] was 50 and the “Lambsquarters plant response rating” value [15, 20] was 70. For the same molecule, the “Surinam Grass plant response rating (0 to 100 scale)” value ([16]; 125 g ai/ha) was 0, the “Plant response rating, Surinam Grass” value ([16]; 500 g ai/ha, visual rating) was 10 and the “Surinam Grass plant response rating” value [16, 19] was 10. For the same molecule, the “Surinam Grass plant response rating” value [16, 20] was 30, the “Crabgrass, Large plant response rating (0 to 100 scale)” value ([17]; 125 g ai/ha) was 0 and the “Plant response rating, Crabgrass, Large” value ([17]; 500 g ai/ha, visual rating) was 0. The “Crabgrass, Large plant response rating” value [17, 19] was 0, the “Crabgrass, Large plant response rating” value [17, 20] was 10 and the “Rice plant response rating” value [18] was 20.

`C#CCNC(=O)c1cncc(NC(=O)c2cc(C(C)(C)C)nn2CC)c1` [Compound 264] was tested, and the “Corn plant response rating (0 to 100 scale)” value ([1]; 125 g ai/ha) was 0, the “Plant response rating, Corn” value ([1]; 500 g ai/ha, visual rating) was 0 and the “Corn plant response rating” value [1, 19] was 0. For the same molecule, the “Corn plant response rating” value [1, 20] was 0, the “Sedge, Umbrella plant response rating” value [2] was 50 and the “Blackgrass plant response rating” value [3, 19] was 0. The “Blackgrass plant response rating” value [3, 22] was 20, the “Oat, Wild plant response rating” value [4, 19] was 0 and the “Oat, Wild plant response rating” value [4, 20] was 20. For the same molecule, the “Cocklebur plant response rating (0 to 100 scale)” value ([5]; 125 g ai/ha) was 0, the “Plant response rating, Cocklebur” value ([5]; 500 g ai/ha, visual rating) was 0 and the “Cocklebur plant response rating” value [5, 19] was 0. For the same molecule, the “Cocklebur plant response rating” value [5, 22] was 0, the “Barnyardgrass plant response rating (0 to 100 scale)” value ([6]; 125 g ai/ha) was 0 and the “Plant response rating, Barnyardgrass” value ([6]; 500 g ai/ha, visual rating) was 10. For the same molecule, the “Barnyardgrass plant response rating” value [6, 19] was 0, the “Barnyardgrass plant response rating” value [6, 22] was 0 and the “Rice plant response rating (0 to 100 scale)” value [7] was 0. The “Plant response rating, Rice” value [7] was 0, the “Pigweed plant response rating (0 to 100 scale)” value ([8]; 125 g ai/ha) was 0 and the “Plant response rating, Pigweed” value ([8]; 500 g ai/ha, visual rating) was 100. For the same molecule, the “Pigweed plant response rating” value [8, 19] was 0, the “Pigweed plant response rating” value [8, 20] was 0 and the “Foxtail, Giant plant response rating (0 to 100 scale)” value ([9]; 125 g ai/ha) was 0. For the same molecule, the “Plant response rating, Foxtail, Giant” value ([9]; 500 g ai/ha, visual rating) was 10, the “Foxtail, Giant plant response rating” value [9, 19] was 0 and the “Foxtail, Giant plant response rating” value [9, 20] was 0. The “Barnyardgrass plant response rating” value [10] was 0, the “Ducksalad plant response rating” value [11] was 90 and the “Velvetleaf plant response rating (0 to 100 scale)” value ([12]; 125 g ai/ha) was 0. The “Plant response rating, Velvetleaf” value ([12]; 500 g ai/ha, visual rating) was 10, the “Velvetleaf plant response rating” value [12, 19] was 0 and the “Velvetleaf plant response rating” value [12, 20] was 0. The “Morningglory plant response rating (0 to 100 scale)” value ([13]; 125 g ai/ha) was 0, the “Plant response rating, Morningglory” value ([13]; 500 g ai/ha, visual rating) was 0 and the “Morningglory plant response rating” value [13, 19] was 0. The “Morningglory plant response rating” value [13, 20] was 0, the “Wheat plant response rating” value [14, 19] was 0 and the “Wheat plant response rating” value [14, 20] was 10. For the same molecule, the “Lambsquarters plant response rating (0 to 100 scale)” value ([15]; 125 g ai/ha, 0 = no effect, 100 = complete control, preemergence) was 0, the “Plant response rating, Lambsquarters” value [15, 21] was 100 and the “Lambsquarters plant response rating” value [15, 19] was 0. For the same molecule, the “Lambsquarters plant response rating” value [15, 20] was 0, the “Surinam Grass plant response rating (0 to 100 scale)” value ([16]; 125 g ai/ha) was 0 and the “Plant response rating, Surinam Grass” value ([16]; 500 g ai/ha, visual rating) was 10. The “Surinam Grass plant response rating” value [16, 19] was 0, the “Surinam Grass plant response rating” value [16, 20] was 0 and the “Crabgrass, Large plant response rating (0 to 100 scale)” value ([17]; 125 g ai/ha) was 10. For the same molecule, the “Plant response rating, Crabgrass, Large” value ([17]; 500 g ai/ha, visual rating) was 50, the “Crabgrass, Large plant response rating” value [17, 19] was 0 and the “Crabgrass, Large plant response rating” value [17, 20] was 0. For the same molecule, the “Rice plant response rating” value [18] was 0.

— patent US20060069132A1, “Azolecarboxamide herbicides” (priority 2004, published 2006)
